According to patent US9962341B2, “Active pharmaceutical ingredient (API) comprising cannabinoids for use in the treatment of cancer” (GW Pharma Limited, priority 2014, dated 2018):
Read-outs that look alike come from different tables or passages of the source.

What was measured:
Format in all cases: cell-based
[1] = system: PANC-1; test: Cell viability (CellTiter-Blue, 72 h), PANC-1 pancreatic cancer cells; conditions: Homo sapiens, PANC-1, 1% FBS
Description: (§1) The following cell lines were tested in this example: Lung Cancer (A549, NCI-H460); Pancreatic cancer (PANC1, Mia-Pa-Ca-2); Melanoma (WM115, A375); Ovarian cancer (OVCAR3, SKOV3); Gastric cancer (MKN45, HGC-27); Renal cancer (ACHN) and Bladder Cancer (RT112).
(§2) Each tumour cell line was maintained in vitro in RPMI 1640+10% heat inactivated FBS and 2 mM L-glutamine (growth media) at 37° C. in 5% CO2 and humidified conditions. The cells were harvested, washed, re-suspended into growth medium and counted. The cells were re-suspended into assay media (RPMI 1640+5% heat inactivated FBS+ and 2 mM L-glutamine) at 4×10^4 cells/ml (dependent upon cell type) and plated into the middle 240 wells of 384 well tissue culture plates (Corning CellBind, black-wall plates) 25 μl/well aliquots; 50 μl of growth media was aliquoted into the outer wells. There were 3 plates for each cell line.
(§3) The plates were incubated overnight at 37° C., in 5% humidified CO2.
(§4) The phytocannabinoid test compounds were prepared in 100% DMSO vehicle at a stock concentration of 20 and 40 mM.
(§5) Starting with the 20 mM stock in DMSO, this was serially diluted (2 fold) in DMSO in a 96-well plate, to 20 (no dilution), 10, 5, 2.5, 1.25, 0.625, 0.315, 0.157 and […]. Following this, 10 ul of each compound dilution was diluted into 990 ul of 1% (v/v) FBS media in a deep well block making the final concentrations of 200, 100, 50, 25, 12.5, 6.25, 3.125, 1.56 and 0.79 μM (2× final assay concentrations and 1% DMSO).
(§6) An equal volume of each cannabinoid in the combination (stock concentration 40 mM) was mixed together to make a stock of 20 mM of each cannabinoid in DMSO. This was serially diluted (2 fold) in DMSO in a 96-well plate, to 20 (no dilution), 10, 5, 2.5, 1.25, 0.625, 0.315, 0.157 and […]. Following this, 10 ul of each combination dilution was diluted into 990 ul of 1% (v/v) FBS media in a deep well block making the final concentrations of 200, 100, 50, 25, 12.5, 6.25, 3.125, 1.56 and 0.79 μM (2× final assay concentrations and 1% DMSO).
Gemcitabine SOC was prepared in 100% DMSO to give a stock concentration of 20 mM. This was then serially diluted (3 fold) in DMSO in a 96-well plate, to 20 (no dilution), 6.6, 2.2, 0.741, 0.247, 0.082, 0.027, 0.009 and 0.003 mM. Following this, 10 ul of each dilution was further diluted into 990 ul of 1% (v/v) FBS media making the final concentrations of 200 (no dilution), 66.66, 22.22, 7.41, 2.47, 0.82, 0.27, 0.09, 0.03 μM (2× final assay concentrations and 1% DMSO).
(§7) The plates were incubated for 72 h at 37° C. in 5% humidified CO2. To develop the plates, at 72 h, 10 μl of CellTiter-Blue™ reagent was added to each test/blank well.
(§8) The plates were incubated at 37° C., 5% humidified CO2. Fluorescence was measured using a Flex II Station plate reader (570 nm excitation wavelength, 600 nm emission wavelength, 590 nm cut-off) after 3 h.
(§9) The phytocannabinoid compounds CBD, CBGA, CBG, CBDA, THCV and THC were tested on a panel of lung (A549, NCI-H460), pancreatic (PANC1, Mia-Pa-Ca-2), melanoma (WM115, A375), ovarian (OVCAR3, SKOV3), gastric (MKN45, HGC-27), renal (ACHN) and bladder (RT112) cancer cell lines according to the protocol for 72 h in media containing 1% FBS.
(§10) The IC50 values for each phytocannabinoid and combination of CBD with the other phytocannabinoids was calculated for each cell line. The raw data values expressed in relative fluorescent units were normalised to the vehicle for each individual plate and any reduction in fluorescence indicated a decrease in viability.
(§11) This calculation was as described in Example 1 above.

[2] = system: A375; test: Cell viability (CellTiter-Blue, 72 h), A375 melanoma cells; conditions: Homo sapiens, A-375, A375, 1% FBS
Description: as §1, §2, §3, §4, §5, §6
(§12) Cisplatin (stock of 1 mg/ml=3.33 mM in water) was diluted in 1% FBS media to give a stock concentration of 1 mM. This was then diluted in 1% FBS media from the stock solution to 200 μM, then serially diluted (3-fold) in 1% FBS media to 200 (no dilution), 66.66, 22.22, 7.41, 2.47, 0.82, 0.27, 0.09, 0.03 μM (2× final assay concentrations; no DMSO).
as §7, §8, §9, §10, §11

[3] = system: SKOV3; test: Cell viability (CellTiter-Blue, 72 h), SKOV3 ovarian cancer cells; conditions: Homo sapiens, SK-OV-3
Description: as §1, §2, §3, §4, §5, §6, §12, §7, §8, §9, §10, §11

[4] = system: MKN45; test: Cell viability (CellTiter-Blue, 72 h), MKN45 gastric cancer cells; conditions: Homo sapiens, MKN-45
Description: as §1, §2, §3, §4, §5, §6, §12, §7, §8, §9, §10, §11

[5] = 72 h, read-out: Cell line IC50 value
[6] = read-out: Dm (median effect dose)
[7] = SKOV3, 1% FBS, 72 h, read-out: Cell line IC50 value
[8] = SKOV3 cells, 1% FBS, read-out: Dm (potency, median effect)
[9] = MKN45, 1% FBS, 72 h, read-out: Cell line IC50 value
[10] = MKN45 cells, 1% FBS, read-out: Dm (potency, median effect)

Question: With `C=C(C)[C@@H]1CCC(C)=C[C@H]1c1c(O)cc(CCCCC)cc1O` [CBD, Cannabidiol] as the compound, how does the IC50 [1, 5] read?
Answer: The IC50 was 3 µM.

Question: And the IC50 [1, 6]?
Answer: Its IC50 is 2.92 µM.

Question: And the IC50 [2, 5]?
Answer: Its IC50 is 2.9 µM.

Question: And the IC50 [2, 6]?
Answer: Its IC50 is 2.66 µM.

Question: And the IC50 [3, 7]?
Answer: Its IC50 is 3.1 µM.

Question: And the IC50 [3, 8]?
Answer: Its IC50 is 3.17 µM.

Question: What about the IC50 [4, 9] of the same compound?
Answer: Its IC50 is 3.4 µM.

Question: What about the IC50 [4, 10] of the same compound?
Answer: Its IC50 is 3.91 µM.

Question: What does the source list for `C=C(C)[C@@H]1CCC(C)=C[C@H]1c1c(O)cc(CCCCC)c(C(=O)O)c1O` [CBDA, Cannabidiolic acid]?
Answer: IC50 [1, 5]: 13.1 µM; IC50 [1, 6]: 12.6 µM; IC50 [2, 5]: 10.2 µM; IC50 [2, 6]: 9.78 µM; IC50 [3, 7]: 1.3 µM; IC50 [3, 8]: 10.6 µM; IC50 [4, 9]: 8.8 µM; IC50 [4, 10]: 8.04 µM

Question: With `CCCCCc1cc(O)c(C/C=C(\C)CCC=C(C)C)c(O)c1` [CBG, Cannabigerol] as the compound, how does the IC50 [1, 5] read?
Answer: The IC50 was 3.1 µM.

Question: What about the IC50 [1, 6] of the same compound?
Answer: Its IC50 is 2.88 µM.

Question: What about the IC50 [2, 5] of the same compound?
Answer: Its IC50 is 2.1 µM.

Question: And the IC50 [2, 6]?
Answer: The IC50 was 1.89 µM.

Question: And the IC50 [3, 7]?
Answer: The IC50 was 5.5 µM.

Question: And the IC50 [3, 8]?
Answer: The IC50 was 4.75 µM.

Question: And the IC50 [4, 9]?
Answer: The IC50 was 4.3 µM.

Question: What about the IC50 [4, 10] of the same compound?
Answer: The IC50 was 4.16 µM.

Question: Which IC50 [1, 5] does the source give for `CCCCCc1cc(O)c(C/C=C(\C)CCC=C(C)C)c(O)c1C(=O)O` [CBGA, Cannabigerolic acid] here?
Answer: Its IC50 is 8.5 µM.

Question: What about the IC50 [1, 6] of the same compound?
Answer: The IC50 was 8.82 µM.

Question: And the IC50 [2, 5]?
Answer: Its IC50 is 7.3 µM.

Question: And the IC50 [2, 6]?
Answer: The IC50 was 6.66 µM.

Question: What about the IC50 [3, 7] of the same compound?
Answer: The IC50 was 7.9 µM.

Question: What about the IC50 [3, 8] of the same compound?
Answer: The IC50 was 8.64 µM.

Question: And the IC50 [4, 9]?
Answer: Its IC50 is 6.5 µM.

Question: And the IC50 [4, 10]?
Answer: The IC50 was 6.4 µM.

Question: `CCCCCc1cc(O)c2c(c1)OC(C)(C)[C@@H]1CCC(C)=C[C@@H]21` [THC, Tetrahydrocannabinol, reference compound] was tested. Which IC50 [1, 5] did it give?
Answer: Its IC50 is 3 µM.

Question: And the IC50 [1, 6]?
Answer: The IC50 was 3.15 µM.

Question: What about the IC50 [2, 5] of the same compound?
Answer: Its IC50 is 2.7 µM.

Question: And the IC50 [2, 6]?
Answer: Its IC50 is 2.47 µM.

Question: What about the IC50 [3, 7] of the same compound?
Answer: Its IC50 is 5.3 µM.

Question: What about the IC50 [3, 8] of the same compound?
Answer: The IC50 was 4.56 µM.

Question: And the IC50 [4, 9]?
Answer: Its IC50 is 4.2 µM.

Question: And the IC50 [4, 10]?
Answer: The IC50 was 4.42 µM.

Question: Which results are given for `CCCc1cc(O)c2c(c1)OC(C)(C)[C@@H]1CCC(C)=C[C@@H]21` [THCV, Tetrahydrocannabivarin]?
Answer: IC50 [1, 5]: 6.5 µM; IC50 [1, 6]: 6.46 µM; IC50 [2, 5]: 5 µM; IC50 [2, 6]: 5.54 µM; IC50 [3, 7]: 6.5 µM; IC50 [3, 8]: 6.58 µM; IC50 [4, 9]: 6.5 µM; IC50 [4, 10]: 6.88 µM
